Data from patent US10166225B2, “Method for treating osteoporosis” (Exelixis, Inc., priority 2011, dated 2019).

How the values were obtained:
human osteoclasts = assay: Osteoclast activity assay (resorption index CTX/TRACP 5b); type: cell-based
Description: In the second part, the culture medium of human osteoclasts was replaced by new medium at day 7, and the formed mature osteoclasts were cultured for an additional 3 days, allowing them to resorb bone. Compound 1 was added into the culture medium at day 7. […] C-terminal cross-linked telopeptides of type I collagen (CTX) were measured in the culture medium collected at day 10 to quantitate bone resorption during days 7-10. […] was measured at day 7 to quantitate osteoclast number before Compound 1 was added. The CTX values were divided by the […] values, resulting as a resorption index that indicates mean osteoclast activity. […] The objective of this study was to investigate the effects of Compound 1 selected by the Sponsor on differentiation and activity of human osteoclasts and mouse osteoblasts in vitro. The effects on osteoclasts were studied using a model where bone marrow-derived human osteoclast precursor cells are cultured on bovine bone slices for 7 days in conditions favouring osteoclast differentiation, and allowed to differentiate into bone-resorbing osteoclasts. After completion of osteoclast differentiation at day 7, the culture medium was removed and new culture medium favouring osteoclast activity was added into the wells. The mature osteoclasts were then cultured for an additional 3 days, allowing them to resorb bone. In the osteoclast differentiation assay, the test compounds and a reference inhibitor osteoprotegerin (OPG) were added into cultures at day 0. In the osteoclast activity assay, the test compounds and a reference inhibitor E64 were added into cultures at day 7. Seven concentrations in 8 replicates were tested in both assays. Tartrate-resistant acid phosphatase 5b activity ([…]) was measured from the culture medium collected at day 7 as an index of the number of osteoclasts formed in each well during the differentiation period. C-terminal cross-linked telopeptides of type I collagen (CTX) was measured from the culture medium collected at day 10 to quantitate bone resorption during days 7-10. A human osteoclast culture system was developed for use in this study where CD34+ osteoclast precursor cells derived from human bone marrow (Poietics® Human Osteoclast Precursors, Lonza, Walkersville, USA) are cultured on bovine bone slices in the presence of appropriate growth factors, including M-CSF and RANK-ligand ([…] et al. 2009). The cells are first allowed to differentiate into mature bone-resorbing osteoclasts, and the formed osteoclasts are then allowed to resorb bone. The test and reference compounds are added into the cell cultures at the beginning of the differentiation and/or the resorption period, and their effects on the differentiation and/or resorbing activity of osteoclasts are determined. Secreted […] is determined from the culture medium after the differentiation period using a commercially available method (BoneTRAPÒ, IDS Ltd, Boldon, UK). Secreted […] describes accurately the number of osteoclasts formed in each well during the differentiation period. CTX is determined from the culture medium after the resorption period using a commercially available method (CrossLapsÒ for cultures, IDS Ltd, Boldon, UK). CTX describes accurately the amount of bone collagen degradation products released into the culture medium in each well during the resorption period. […] In this study, human bone marrow-derived CD34+ stem cells (10000 cells/well) were suspended in culture medium and allowed to attach to bovine bone slices in 96-well tissue culture plates. The culture medium (containing 10% FBS, OCP BulletKit® Lonza, Walkersville, USA) was supplemented with appropriate amounts of important growth factors favoring osteoclast differentiation and activity, including M-CSF (33 ng/ml, OCP BulletKit® Lonza, Walkersville, USA) and RANK-ligand (66 ng/ml, OCP BulletKit® Lonza, Walkersville, USA) in 200 μl of medium. The cells were incubated in a CO2 incubator in humidified atmosphere of 95% air and 5% carbon dioxide at 37° C. […]

[1] = patients with metastatic castration resistant prostate cancer, regardless of prior bisphosphonates; cited from earlier work

Work on COc1cc2nccc(Oc3ccc(NC(=O)C4(C(=O)Nc5ccc(F)cc5)CC4)cc3)c2cc1OC [Compound 1, N-(4-{[6,7-bis(methyloxy)quinolin-4-yl]oxy}phenyl)-N′-(4-fluorophenyl)cyclopropane-1,1-dicarboxamide] yielded an activity at 0.004 µM (human osteoclasts; Homo sapiens, Osteoclast, 0.004 μM Compound 1, read-out: CTX at Day 10 and TRACP 5b Activity at Day 7 (CTX/TRACP 5b), Percent Activity (%) Compared to BL) of 84%, an activity at 0.012 µM (human osteoclasts; Homo sapiens, Osteoclast, 0.012 μM Compound 1, read-out: CTX at Day 10 and TRACP 5b Activity at Day 7 (CTX/TRACP 5b), Percent Activity (%) Compared to BL) of 104% and an activity at 0.037 µM (human osteoclasts; Homo sapiens, Osteoclast, 0.037 μM Compound 1, read-out: CTX at Day 10 and TRACP 5b Activity at Day 7 (CTX/TRACP 5b), Percent Activity (%) Compared to BL) of 115%. For the same compound, the activity at 0.11 µM (human osteoclasts; Homo sapiens, Osteoclast, 0.11 μM Compound 1, read-out: CTX at Day 10 and TRACP 5b Activity at Day 7 (CTX/TRACP 5b), Percent Activity (%) Compared to BL) was 107%, the activity at 0.33 µM (human osteoclasts; Homo sapiens, Osteoclast, 0.33 μM Compound 1, read-out: CTX at Day 10 and TRACP 5b Activity at Day 7 (CTX/TRACP 5b), Percent Activity (%) Compared to BL) was 102% and the activity at 1 µM (human osteoclasts; Homo sapiens, Osteoclast, 1.0 μM Compound 1, read-out: CTX at Day 10 and TRACP 5b Activity at Day 7 (CTX/TRACP 5b), Percent Activity (%) Compared to BL) was 111%. For the same compound, the activity at 3 µM (human osteoclasts; Homo sapiens, Osteoclast, 3.0 μM Compound 1, read-out: CTX at Day 10 and TRACP 5b Activity at Day 7 (CTX/TRACP 5b), Percent Activity (%) Compared to BL) was 85%, the “effect on osteoclast resorption activity” value (human osteoclasts; tested concentrations 0.004-3.0 μM) was “no effects” and the “plasma CTx” value [1] was “decrease”.
